Columns and labels:
Rattus norvegicus [1] = assay: Reduction of gastric wall mucus level in Rattus norvegicus (rat) stomach measured per mg of protein at 1240 mg/kg, po after 12 hr by alcian blue staining (reference value: 285.680 +/- 3.348 ug); type: functional
[2] = Solubility of the compound in 0.1 N sodium hydroxide at 10 mg; type: physicochemical
Rattus norvegicus [3] = assay: Increase in hexosamine level in Rattus norvegicus (rat) stomach at 1240 mg/kg, po after 12 hr (reference value: 122.323 +/- 4.639 ug/ml); type: functional
Rattus norvegicus [4] = assay: Anti-inflammatory activity in Rattus norvegicus Wistar albino (rat) assessed as inhibition of carrageenan-induced paw edema at 124 mg/kg, po measured at 4 hr relative to control; type: functional
[5] = Solubility of the compound in chloroform at 10 mg; type: physicochemical
Rattus norvegicus [6] = assay: Antioxidant activity in Rattus norvegicus (rat) stomach assessed as effect on catalase level measured per mg of protein at 1240 mg/kg, po after 12 hr by spectrophotometric analysis (reference value: 26.055 +/- 4.669 U); type: functional
Rattus norvegicus [7] = assay: Antioxidant activity in Rattus norvegicus (rat) stomach assessed as effect on GSH level measured per 100 g of protein at 1240 mg/kg, po after 12 hr by Ellman's method (reference value: 350.735 +/- 42.887 uM); type: functional
Rattus norvegicus [8] = assay: Anti-inflammatory activity in Rattus norvegicus Wistar albino (rat) assessed as inhibition of carrageenan-induced paw edema at 124 mg/kg, po measured at 24 hr relative to control; type: functional
Rattus norvegicus [9] = assay: Antioxidant activity in Rattus norvegicus (rat) stomach assessed as reduction of lipid peroxidation measured MDA level per mg of protein at 1260 mg/kg, po after 12 hr by TBARS assay (reference value: 4.388 +/- 0.404 nM); type: functional
[10] = n-Octanol-phosphate buffer partition coefficient, log P of the compound at pH 7.4 by HPLC method; type: physicochemical
Rattus norvegicus [11] = assay: Inhibition of superoxide dismutase level in Rattus norvegicus (rat) stomach at 1240 mg/kg, po after 12 hr (reference value: 37.096 +/- 7.335%); type: functional
[12] = Solubility of the compound in 0.1 N hydrochloric acid at 10 mg; type: physicochemical
[13] = Half life in Homo sapiens (human) 80% plasma at 10 mg at pH 7.4; type: ADME, cell-free; conditions: 80% human plasma
[14] = Solubility of the compound in benzene at 10 mg; type: physicochemical
[15] = Solubility of the compound in ethanol at 10 mg; type: physicochemical
[16] = Solubility of the compound in dichloromethane at 10 mg; type: physicochemical
Rattus norvegicus [17] = assay: Anti-inflammatory activity in Rattus norvegicus Wistar albino (rat) assessed as inhibition of carrageenan-induced paw edema at 124 mg/kg, po measured at 3 hr relative to control; type: functional
Rattus norvegicus [18] = assay: Ulcerogenicity in Rattus norvegicus (rat) stomach assessed as ulcer index at 1240 mg/kg, po after 12 hr (reference value: 3.413 +/- 2.160 no unit); type: toxicity, organism-based; set-up: dose 1240 mg/kg, route oral; conditions: in vivo
[19] = Half life in hydrochloric acid buffer at 10 mg at pH 1.2; type: physicochemical
[20] = Solubility of the compound in methanol at 10 mg; type: physicochemical
Rattus norvegicus [21] = assay: Anti-inflammatory activity in Rattus norvegicus Wistar albino (rat) assessed as inhibition of carrageenan-induced paw edema at 124 mg/kg, po measured at 6 hr relative to control; type: functional
Rattus norvegicus [22] = assay: Effect on protein level in Rattus norvegicus (rat) stomach at 1240 mg/kg, po after 12 hr by Bradford method (reference value: 42.5 +/- 5.773 ug/ml); type: functional
[23] = Half life in isotonic phosphate buffer at 10 mg at pH 7.4; type: physicochemical
Mus musculus = assay: Analgesic activity in po dosed Mus musculus Swiss albino (mouse) assessed as inhibition of acetic acid-induced writhing administered 1 hr prior to acetic acid challenge measured for 20 min relative to control; type: functional

Cc1ccc(C(C)C)c(OC(=O)c2ccccc2Nc2cccc(C)c2C)c1
Activity (Rattus norvegicus [1]): 190.256 µg | solubility [2]: soluble | Activity (Rattus norvegicus [3]): 151.249 µg/mL | inhibition in vivo at 124 mg/kg (Rattus norvegicus [4]): 41.7% | solubility [5]: soluble | Activity (Rattus norvegicus [6]): 23.089 U | Activity (Rattus norvegicus [7]): 286.765 µM | inhibition in vivo at 124 mg/kg (Rattus norvegicus [8]): 62.4% | Activity (Rattus norvegicus [9]): 13.972 nM | logD [10]: 5.45 | inhibition in vivo at 1240 mg/kg (Rattus norvegicus [11]): 33.3% | solubility [12]: Insoluble | half-life [13]: 1.14 h | solubility [14]: soluble | solubility [15]: soluble | solubility [16]: soluble | inhibition in vivo at 124 mg/kg (Rattus norvegicus [17]): 37.8% | UI (Rattus norvegicus [18]): 6.833 | half-life [19]: 23.1 h | solubility [20]: soluble | inhibition in vivo at 124 mg/kg (Rattus norvegicus [21]): 51% | Activity (Rattus norvegicus [22]): 42.917 µg/mL | half-life [23]: 7.11 h | inhibition (INH) (Mus musculus): 52.722%

Source: ChEMBL document CHEMBL3046044, “Evaluation of mefenamic acid mutual prodrugs” (Med Chem Res, 2013)
